Our source for the logP values is the OPERA property sets (Mansouri et al. 2018).

Where a SMILES comes first, the peptide text is derived from it. [ ]: non-standard residue; d: D form. Orn = NCCC[CH](N)C(=O)O

As a reminder, the logP is the decadic logarithm of the partition coefficient of the neutral form, usually between octanol and water. High values mean a more lipophilic compound, low ones a more hydrophilic compound.

The compound `O=C(O)c1ccc([N+](=O)[O-])c(O)c1` gave a logP of 1.98.
The figure for `COc1ccc2cc(C(C)C(=O)OCC(N)=O)ccc2c1` (centres undefined) is 2.06.
The figure for `CC(=O)NC(CC(C)C)C(=O)NC(CCCN)C(=O)NC(Cc1ccccc1)C(N)=O` (centres undefined) (Ac-Leu-[Orn]-Phe-NH2; configuration not given here) is 0.53; for `CCCCN1C(=O)NC(=O)C(=O)C1=O` it is 0.81.
For `Cc1c(O)c(=O)ccn1-c1ccc([N+](=O)[O-])cc1`, the lipophilicity (logP) was 0.76.
The figure for `CCC1CC2C3CCC4=CC(=O)CCC4C3CCC2(C)C1C(=O)CF` (centres undefined) is 4.66.
The figure for `CCC1COC(Cn2cncn2)(c2ccc(C(=N)N)cc2)O1` (centres undefined) is 0.85; for `CC1CC2C3CCC4=CC(=O)C=CC4(C)C3(F)C(O)CC2(C)C1(O)C(=O)NCc1ccc([N+](=O)[O-])cc1` (centres undefined) it is 3.44.
For the compound `CC(C)NC(=O)C1(O)C(C)CC2C3CCC4=CC(=O)C=CC4(C)C3(F)C(O)CC21C` (centres undefined), the logP stood at 2.43.
The figure for `CSc1nc(Nc2ccc(Cl)cc2)nc(C(Cl)(Cl)Cl)n1` is 5.71; for `COC(=O)c1c(C)[nH]c(-c2ncccc2Cl)c1C(=O)OC` it is 1.51.
`CCOc1ccc(C(=O)O)cc1OCC` returned a logP of 2.37.
In the case of `CN1C=CCC1c1cccnc1` (centres undefined), the log partition coefficient (logP) is 1.47.
The figure for `O=C(O)CCCCCNCCc1ccccc1` is -1.3.
The figure for `CN(CC1(C)CCCO1)S(=O)(=O)c1ccc(Cl)c(S(N)(=O)=O)c1` (centres undefined) is 1.54; for `COCC(F)Cn1cnc([N+](=O)[O-])n1` (centres undefined) it is -0.04.
The figure for `OCCOc1ccccc1Cl` is 1.81; for `N=c1ccn2c(n1)OC1C(O)C(CCl)OC12` (centres undefined) it is -3.1.
The compound `CC(=O)N[C@@H](CO)C(=O)N[C@H](C(N)=O)C(C)C` (Ac-Ser-Val-NH2) returned a log partition coefficient (logP) of -1.53.
The figure for `CC12C=CC(=O)C=C1CCC1C2C(O)CC2(C)C1CCC2(O)C(=O)COC1OC(CO)C(OC2OC(CO)C(O)C(O)C2O)C(O)C1O` (centres undefined) is -0.56; for `Clc1cccc(-c2c(Cl)c(Cl)cc(Cl)c2Cl)c1Cl` it is 7.25; for `COc1ccc(OCc2ccccc2CCCN2CCC(O)CC2)cc1` it is 3.1.
The figure for `CCNc1nc(SC)nc(C(Cl)(Cl)Cl)n1` is 3.87; for `COCCCNc1nc(NC(C)C)nc(SC)n1` it is 2.82; for `Cc1nc2sccn2c(=O)c1CCN1CCC(=C(c2ccc(F)cc2)c2ccc(F)cc2)CC1` it is 5.2.
The figure for `CCOC(CNC(=O)C1(O)C(C)CC2C3CCC4=CC(=O)C=CC4(C)C3(F)C(O)CC21C)OCC` (centres undefined) is 2.65; for `CCN1C(=O)NC(=O)C(=O)C1=O` it is -0.32.
Compound `Cc1nc(Cl)c([N+](=O)[O-])n1C` showed a log partition coefficient (logP) of 0.87.
The figure for `Cn1cc(-c2ccccc2)c(=O)c(-c2cccc(C(F)(F)F)c2)c1` is 3.16; for `O=C(NN=Cc1ccco1)Nc1ccccc1` it is 2.52; for `NC(=O)c1ccc2ccccc2c1` it is 1.88.
The figure for `CCOCCN(CCOCC)CC(O)c1cc(-c2ccc(Cl)c(Cl)c2)nc2ccccc12` (centres undefined) is 5.76.
Take `c1ccc(SCc2ccccc2CCCN2CCOCC2)cc1`: the logP was 3.8.
The figure for `Fc1ccc(SCc2ccccc2CCCN2CCOCC2)cc1` is 3.69.
The compound `C#CCNC(=O)C1(O)C(C)CC2C3CCC4=CC(=O)C=CC4(C)C3(F)C(O)CC21C` (centres undefined) displayed a log partition coefficient (logP) of 2.
The figure for `Cn1c([N+](=O)[O-])cnc1-c1ccccc1` is 1.58; for `COC(=O)Cc1ccc(O)c2ncccc12` it is 1.59; for `CCN1C(=O)C(=O)c2c(OC)cc(OC)cc2C1=O` it is 1.23.
`COc1cc(Cc2cnc(N)nc2N)cc(Br)c1OC` had a lipophilicity (logP) of 2.23.
The figure for `COC(=O)C1CC2C3CCC4=CC(=O)C=CC4(C)C3(F)C(O)CC2(C)C1C(=O)CO` (centres undefined) is 1.78; for `N#CC(C#N)=NNc1ccccc1Br` it is 3.11; for `COC(=O)CCCCC(S)CCS` (centres undefined) it is 2.27.
The figure for `CCC1(CCC(C)C)C(=O)NC(=O)N(C)C1=O` (centres undefined) is 2.45; for `O=C(N/N=C/c1ccc[nH]1)Nc1ccccc1` it is 2.96.
The figure for `COc1ccc(OCCO)cc1` is 1.13; for `CCC(=O)C(CS(=O)(=O)c1ccccc1)c1ccc(Cl)cc1` (centres undefined) it is 2.69; for `Cc1c([N+](=O)[O-])ncn1C` it is -0.11.
Regarding `Nc1c2ncn(C3OC(CO)CC3F)c2nc[n+]1[O-]` (centres undefined), the log partition coefficient (logP) is -1.38.
The compound `c1ccc(-c2nnn[nH]2)cc1` had a logP of 1.65.
The figure for `Cc1ccc(Cl)c(C)c1` is 3.83; for `O=c1[nH]c2ccccc2n1C1CCN(CC(O)C2COc3ccccc3O2)CC1` (centres undefined) it is 3.43; for `CCC(=O)C(CS(=O)(=O)c1ccccc1)c1ccc(C)cc1` (centres undefined) it is 2.7.
`CN(C)N=Nc1ccc(C(F)(F)F)cc1` displayed a lipophilicity (logP) of 4.
The figure for `C=CCN(C)N=Nc1ccccc1C(N)=O` is 2.91.
The figure for `COCC(O)Cn1c(C)cnc1[N+](=O)[O-]` (centres undefined) is 0.03; for `NC(=O)COc1cccc(Cc2cnc(N)nc2N)c1` it is 0.28; for `CCCCCOC(=O)C(C(=O)OCCCCC)=C1SCCS1` it is 5.6.
The figure for `CC(OCc1cn(C)c(C=NO)n1)C(C)(C)C` (centres undefined) is 2.53; for `CC(=O)c1ccc2c(c1)OCCOCCOCCOCCOCCO2` it is -0.05; for `CNC(=O)N(C)c1nnc(C(C)(C)C)s1` it is 1.79.
`OCC1CC(F)C(n2cnc3c(F)ncnc32)O1` (centres undefined): the logP came out at 0.06.
Turning to `Nc1nc2c(ncn2C2OC(CO)CC2F)c(=O)[nH]1` (centres undefined), the logP is -1.18.
`Clc1ccc(-c2cc(Cl)c(Cl)cc2Cl)c(Cl)c1` gave a logP of 7.21.
The figure for `CCC(C)C(NC(=O)C(CC(=O)O)NC(C)=O)C(=O)NC(Cc1ccccc1)C(N)=O` (centres undefined) is 0.61; for `Cc1ccc(Cl)c(Cl)c1Cl` it is 4.56.
The figure for `Sc1nc(-c2ccccc2)ns1` is 2.13; for `CC(=O)NC(CCCCN)C(=O)NC(Cc1ccccc1)C(=O)NC(C(N)=O)C(C)C` (centres undefined) it is 0.51; for `Cn1c([N+](=O)[O-])cnc1COc1ccc(Cl)cc1` it is 1.8.
The figure for `CN(C)c1nc(=O)n(C2CCCCC2)c(=O)n1C` is 1.85; for `CCOC(=O)Cn1ccnc1[N+](=O)[O-]` it is 0.33; for `CCOC(=O)C(NC(=O)CCCCSc1[nH]cnc2ncnc1-2)c1ccccc1` (centres undefined) it is 1.13.
As to `CC(O)CNC(=O)C(F)(F)Cn1cnc([N+](=O)[O-])n1` (centres undefined), the log partition coefficient (logP) was -0.47.
The figure for `CN1CC(O)N(c2nnc(C(C)(C)C)s2)C1=O` (centres undefined) is 1.49; for `CCCOc1ccc2ccc(=O)oc2c1` it is 2.86.
The figure for `Cn1c([N+](=O)[O-])cnc1C(N)=O` is 0.29.
The figure for `CC(=O)OCC(O)Cn1ccnc1[N+](=O)[O-]` (centres undefined) is -0.37; for `CC1(c2ccccc2)OC(=O)NC1=O` (centres undefined) it is 1.85; for `S=C=NCCCCc1cccnc1` it is 2.7.
Consider `CCCCOc1cccc(NC(=O)OCCN2CCOCC2)c1`, for which the lipophilicity (logP) is 3.62.
On to `COCC(O)Cn1ncc([N+](=O)[O-])n1` (centres undefined), for which the logP is -0.07.
The figure for `Clc1cc(Cl)c(-c2cc(Cl)c(Cl)c(Cl)c2)cc1Cl` is 7.5; for `CCC1COC(Cn2cncn2)(c2ccc(-n3cncn3)cc2Cl)O1` (centres undefined) it is 1.28.
The figure for `O=[N+]([O-])c1cnc(C=Cc2ccccc2)n1CCO` is 2.25.
The figure for `NS(=O)(=O)c1ccc2ccccc2c1` is 1.55; for `O=C(O)c1ccc(CCl)cc1` it is 2.12; for `CC12CCC(=O)C=C1CCC1C2CCC2(C)C1CCC2(O)C(O)CO` (centres undefined) it is 2.
`O=c1[nH]c(Nc2ccccc2)nc2c1ncn2CCO` showed a log partition coefficient (logP) of 0.83.
The figure for `O=C(O)CCCCCCCc1ccccc1` is 4.09; for `Clc1cc(Cl)c(-c2cc(Cl)c(Cl)c(Cl)c2)c(Cl)c1` it is 7.25.
`CCN1C(=O)C(=O)c2ccc(OC)cc2C1=O` had a lipophilicity (logP) of 1.49.
The figure for `CCOC(=O)c1cc(S(N)(=O)=O)c(Cl)cc1NCc1ccco1` is 2.67; for `O=c1nc(N=CN2CCCC2)ccn1C1CC(O)C(CO)O1` (centres undefined) it is -1.02; for `CCC(C)NC(=O)C(Br)=Cc1ccccc1` (centres undefined) it is 2.66.
Compound `COc1ccc(Cc2cccc(-c3c(O)c4ccc(Cl)cc4[nH]c3=O)c2)cc1` registered a logP of 4.8.
The figure for `Cc1n[nH]c(C(=O)NC2CCCC2)c1[N+](=O)[O-]` is 1.24.
The figure for `C#CCOc1c(Cl)cc(NC=NOC(C)C)cc1Cl` is 3.9; for `CC(=O)Nc1c(I)c(C(=O)NC(CO)CO)c(I)c(C(=O)NC(CO)CO)c1I` it is -2.27.
As for `O=C1NC(=O)N(Cc2ccccc2)C(=O)C1=O`, the logP is 1.02.
The figure for `COC1(NC(=O)CSC(F)F)C(=O)N2C(C(=O)OCOC(=O)C(C)(C)C)=C(CSc3nnnn3C)CSC21` (centres undefined) is 2.31.
The compound `COc1cccc(OCc2ccccc2CCCN2CCC(O)CC2)c1` registered a lipophilicity (logP) of 3.35.
Turning to `c1ccc(OCc2cccc(CN3CCCOC3)c2)cc1`, the logP was determined as 2.75.
Take `CC(C)NCC(O)COCCCc1ccccc1` (centres undefined): the logP came to 1.94.
The figure for `O=C(CCn1ccnc1[N+](=O)[O-])NCCO` is -1.08.
The figure for `[N-]=[N+]=CC(=O)NCC(=O)N1CCOCC1` is -0.47; for `OCCOc1ccc(Cl)cc1` it is 1.99; for `C#CCOc1c(Cl)cc(NC=NOCCCl)cc1Cl` it is 3.7.
The figure for `C=CCC1CN(C)CCC1(OC(=O)CC)c1ccccc1` (centres undefined) is 2.97; for `OC1CCN(CCCc2ccccc2COc2ccc(F)cc2)CC1` it is 3.3.
As for `C#CCC(O)(c1cccnc1)c1ccc(Cl)c(Cl)c1` (centres undefined), the logP amounted to 2.42.
`O=c1[nH]c(Nc2ccccc2)nc2c1ncn2CC(O)CSCCO` (centres undefined): the log partition coefficient (logP) turned out to be 0.83.
Turning to `CC(=O)OC1C(=O)C2(C)C(O)CC3OCC3(OC(C)=O)C2C(OC(=O)c2ccccc2)C2(O)CC(OC(=O)C(O)Cc3ccccc3)C(C)=C1C2(C)C` (centres undefined), the logP is 2.9.
The figure for `CCN1C(=O)C(=O)c2cc(OC)c(OC)cc2C1=O` is 1.31; for `Cc1cc(C)cc(Cl)c1` it is 3.88; for `O=C1OC(O)C(C(Cl)Cl)=C1Cl` (centres undefined) it is 1.13.
